Assay results taken from patent US12122763B2, “Substituted piperidines for androgen receptor degradation” (UBIX THERAPEUTICS, INC., priority 2020, dated 2024).

Biological target: T1, Androgen Receptor (AR) protein (Homo sapiens, UniProt P10275, T878A)
T1 construct: endogenous in cells; host or cells: LNCaP
Test: Androgen Receptor (AR) protein degradation assay in LNCaP cells, western blotting
Assay type: cell-based
Conditions: 20 h; for inhibition at 0.01 µM: 0.01 μM compound; for inhibition at 0.1 µM: 0.1 μM compound; for inhibition at 1 µM: 1 μM compound; for inhibition at 10 µM: 10 μM compound
Procedure: Experimental Example 1: Androgen Receptor (AR) Protein Degradation Assay
After treating LNCaP cells with the synthesized Example compound, the amount of AR protein present in the cells was measured. The amount of AR protein was measured using western blotting detection method. The protocol of the experiment using LNCaP cells was as follows:
[Culture] LNCaP cells were resuspended in RPMI1640 MEDIUM (Hyclone, SH30027.01), 10% FBS (Hyclone, SV30207.02), and 1% Penicillin-streptomycin (Welgene, LS 202-02) media to be 3×10^5/mL. Then, 1 mL each was seeded in a 12-well plate. After that, they were cultured for 3 days.
[Compound treatment] 10 μl of 0.1, 1, 10, and 100 μM compound, which is the final compound treatment concentration and a 100× stock of 0.001, 0.01, 0.1, and 1 μM, was added in 1 ml media of each well, and 20 hours later, the cells were harvested.
[Cell Lysis] Cell pellets were suspended using 1% SDS lysis buffer (50 mM Tris, 1 mM EDTA, 1% SDS, pH 8.0, 0.5 mM PMSF, 1× Protease/Phosphatase inhibitor Cocktail (Cell Signaling Technology, 5872s)), and sonication (70% AMP, 5 cycles (30 sec ON/59 sec OFF)) was performed. Cell lysate was obtained after centrifugation at 4° C., 15000 g, for 20 minutes.
[Protein quantification] A BCA protein assay (SMART™ BCA Protein Assay Kit, iNtRON Biotechnology, 21071) was performed using a 96-well microplate. After adding 5 μl cell lysate and 5 μl 1% SDS lysis buffer to each well of the 96-well plate, 200 μl of BCA reagent (Reagent A:Reagent B=50:1) was additionally added. After incubation at 37° C. for 30 minutes, it was cooled at room temperature for 10 minutes. Then, absorbance was measured at a wavelength of 562 nm. The unknown protein concentration was measured using a BSA standard curve (0, 0.125, 0.25, 0.5, 1, 2 mg/ml). Western blotting samples were prepared by mixing cell lysate, 1% SDS lysis buffer, 4× Bolt™ LDS Sample buffer (Invitrogen, B0008), and 10× Bolt™ Sample Reducing Agent (Invitrogen, B0009) and boiling the mixture at 70° C. for 10 minutes.
[Electrophoresis] After loading 8 μg of protein sample into each well of Bolt™ 4 to 12%, Bis-Tris, 1.0 mm Mini Protein Gel, 17-well (Invitrogen, NW04127BOX), Bolt™ MES SDS Running Buffer (Invitrogen, B0002) was used for electrophoresis at 200V (constant V) for 50 minutes.
[Transfer] Using electrophoresis gel and Trans-Blot® Turbo™ Transfer Starter System (Bio-RAD, #17001918, Mini Nitrocellulose), transfer proceeded for 15 minutes under the condition of 1.3A (Constant A) and 25V (Limit V). To confirm protein transfer, 15 ml of Ponceau S solution (Sigma, P7170-1L) was used for staining for 1 minute, followed by washing to confirm the degree of transfer.
[Blocking] Membranes for AR detection were blocked for 45 minutes with 5% skim milk/0.2% TBST (Skim milk: BD, 232100/20× TBS: Biosesang, TR2008-100-00/10% Tween 20 Solution: Bio-RAD, #161-0781). Membranes for GAPDH and β-actin detection were blocked for 45 minutes with Odyssey blocking buffer: 0.1% TBST=1:1 (Odyssey blocking buffer: Li-COR Biosciences, 927-50000).
[Antibody and detection] The primary AR antibody (Androgen Receptor: CST, 5153s) was mixed with 5% skim milk/0.2% TBST at a ratio of 1:1000 and attached for 3 hours at room temperature. Primary β-actin antibody (GeneTex, 629630) was mixed with 5% BSA/0.2% TBST at a ratio of 1:2000 and attached for 3 hours at room temperature. Primary GAPDH antibody (GeneTex, 100118) was mixed with 5% BSA/0.2% TBST at a ratio of 1:2000 and attached for 3 hours at room temperature. After 3 hours, it was washed 3 times every 5 minutes using TBST (0.2% Tween 20). Anti-rabbit IgG, HRP-linked Antibody (CST, 7074s), secondary antibody for the AR antibody was mixed with 5% skim milk/0.2% TBST at a ratio of 1:5000 and attached for 45 minutes at room temperature. […]

T1 sequence (P10275 whole entry T878A): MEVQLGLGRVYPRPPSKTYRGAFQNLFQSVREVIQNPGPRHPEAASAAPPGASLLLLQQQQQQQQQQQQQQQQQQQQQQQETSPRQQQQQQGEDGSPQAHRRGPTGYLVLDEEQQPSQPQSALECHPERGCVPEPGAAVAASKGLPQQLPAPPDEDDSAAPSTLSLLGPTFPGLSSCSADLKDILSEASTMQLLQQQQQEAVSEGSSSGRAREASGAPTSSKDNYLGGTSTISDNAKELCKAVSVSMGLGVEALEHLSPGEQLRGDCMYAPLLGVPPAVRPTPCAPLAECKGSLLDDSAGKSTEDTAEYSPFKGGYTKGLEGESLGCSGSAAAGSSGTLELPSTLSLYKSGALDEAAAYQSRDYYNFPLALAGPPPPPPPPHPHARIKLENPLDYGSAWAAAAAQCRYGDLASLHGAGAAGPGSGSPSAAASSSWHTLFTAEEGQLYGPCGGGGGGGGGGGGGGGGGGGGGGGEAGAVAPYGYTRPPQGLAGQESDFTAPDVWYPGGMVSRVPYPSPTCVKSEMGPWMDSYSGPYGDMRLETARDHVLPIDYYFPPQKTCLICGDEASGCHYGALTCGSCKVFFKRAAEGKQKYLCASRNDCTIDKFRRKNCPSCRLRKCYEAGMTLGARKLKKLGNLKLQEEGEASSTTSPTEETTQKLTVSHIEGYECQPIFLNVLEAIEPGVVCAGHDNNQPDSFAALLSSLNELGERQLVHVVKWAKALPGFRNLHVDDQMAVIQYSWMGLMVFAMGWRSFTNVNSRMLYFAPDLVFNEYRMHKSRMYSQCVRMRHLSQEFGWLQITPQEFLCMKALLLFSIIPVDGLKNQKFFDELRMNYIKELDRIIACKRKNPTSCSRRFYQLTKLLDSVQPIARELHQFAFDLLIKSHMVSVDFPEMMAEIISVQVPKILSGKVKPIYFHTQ
T1 sequence (Q96SW2 whole entry partner): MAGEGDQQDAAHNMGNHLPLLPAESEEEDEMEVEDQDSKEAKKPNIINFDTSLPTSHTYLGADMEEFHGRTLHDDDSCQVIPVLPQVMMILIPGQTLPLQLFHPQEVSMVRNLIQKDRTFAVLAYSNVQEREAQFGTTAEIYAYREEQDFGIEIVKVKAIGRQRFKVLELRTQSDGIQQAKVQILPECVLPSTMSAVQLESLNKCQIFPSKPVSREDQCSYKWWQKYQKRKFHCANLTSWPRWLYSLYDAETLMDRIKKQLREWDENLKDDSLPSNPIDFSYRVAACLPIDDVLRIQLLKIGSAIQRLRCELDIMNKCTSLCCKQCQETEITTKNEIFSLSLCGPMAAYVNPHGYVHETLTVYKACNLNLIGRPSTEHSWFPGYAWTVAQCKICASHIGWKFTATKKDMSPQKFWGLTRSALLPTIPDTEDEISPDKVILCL

Molecule N#Cc1ccc(N2CCC(C(=O)Nc3ccc(N4CCC(CN5CCN(c6ccc7c(c6)C(=O)N(C6CCC(=O)NC6=O)C7=O)CC5)CC4)cn3)CC2)cc1C(F)(F)F (stereo not drawn) [Example 1, 1-(4-cyano-3-(trifluoromethyl)phenyl)-N-(5-(4-((4-(2-(2,6-dioxopiperidin-3-yl)-1,3-dioxoisoindolin-5-yl)piperazin-1-yl)methyl)piperidin-1-yl)pyridin-2-yl)piperidine-4-carboxamide] has an inhibition at 0.01 µM of 55%, an inhibition at 0.1 µM of 98% and an inhibition at 1 µM of 99%. For the same molecule, the inhibition at 10 µM was 99%.

Work on N#Cc1ccc(N2CCC(C(=O)Nc3ccc(N4CCC(CN5CCN(c6ccc7c(c6)C(=O)N(C6CCC(=O)NC6=O)C7=O)CC5)CC4)cn3)CC2)cc1Cl (stereo not drawn) [Example 2, 1-(3-chloro-4-cyanophenyl)-N-(5-(4-((4-(2-(2,6-dioxopiperidin-3-yl)-1,3-dioxoisoindolin-5-yl)piperazin-1-yl)methyl)piperidin-1-yl)pyridin-2-yl)piperidine-4-carboxamide] yielded an inhibition at 0.01 µM of -9%, an inhibition at 0.1 µM of 68% and an inhibition at 1 µM of 97%. The inhibition at 10 µM was 96%.

Work on N#Cc1ccc(N2CCC(C(=O)Nc3ccc(N4CCC(CN5CCN(CCOc6ccc7c(c6)C(=O)N(C6CCC(=O)NC6=O)C7=O)CC5)CC4)cn3)CC2)cc1C(F)(F)F (stereo not drawn) [Example 3, 1-(4-cyano-3-(trifluoromethyl)phenyl)-N-(5-(4-((4-(2-((2-(2,6-dioxopiperidin-3-yl)-1,3-dioxoisoindolin-5-yl)oxy)ethyl)piperazin-1-yl)methyl)piperidin-1-yl)pyridin-2-yl)piperidine-4-carboxamide] yielded an inhibition at 0.01 µM of 45%, an inhibition at 0.1 µM of 98% and an inhibition at 1 µM of 96%.

Work on N#Cc1ccc(N2CCC(C(=O)Nc3ccc(N4CCC(CN5CCN(Cc6ccc7c(c6)C(=O)N(C6CCC(=O)NC6=O)C7=O)CC5)CC4)cn3)CC2)cc1C(F)(F)F (stereo not drawn) [Example 4, 1-(4-cyano-3-(trifluoromethyl)phenyl)-N-(5-(4-((4-((2-(2,6-dioxopiperidin-3-yl)-1,3-dioxoisoindolin-5-yl)methyl)piperazin-1-yl)methyl)piperidin-1-yl)pyridin-2-yl)piperidine-4-carboxamide] yielded an inhibition at 0.01 µM of 24%, an inhibition at 0.1 µM of 86% and an inhibition at 1 µM of 96%.

With N#Cc1ccc(N2CCC(C(=O)Nc3ccc(N4CCC(CN5CCN(C(=O)CNc6ccc7c(c6)C(=O)N(C6CCC(=O)NC6=O)C7=O)CC5)CC4)cn3)CC2)cc1C(F)(F)F (stereo not drawn) [Example 5, 1-(4-cyano-3-(trifluoromethyl)phenyl)-N-(5-(4-((4-((2-(2,6-dioxopiperidin-3-yl)-1,3-dioxoisoindolin-5-yl)glycyl)piperazin-1-yl)methyl)piperidin-1-yl)pyridin-2-yl)piperidine-4-carboxamide] the inhibition at 0.01 µM was 82%, the inhibition at 0.1 µM was 97% and the inhibition at 1 µM was 97%. The inhibition at 10 µM was 97%.

Work on N#Cc1ccc(N2CCC(C(=O)Nc3ccc(N4CCC(CN5CCN(CC6CCN(c7ccc8c(c7)C(=O)N(C7CCC(=O)NC7=O)C8=O)CC6)CC5)CC4)cn3)CC2)cc1Cl (stereo not drawn) [Example 7, 1-(3-chloro-4-cyanophenyl)-N-(5-(4-((4-((1-(2-(2,6-dioxopiperidin-3-yl)-1,3-dioxoisoindolin-5-yl)piperidin-4-yl)methyl)piperazin-1-yl)methyl)piperidin-1-yl)pyridin-2-yl)piperidine-4-carboxamide] yielded an inhibition at 0.01 µM of 87%, an inhibition at 0.1 µM of 99% and an inhibition at 1 µM of 99%. It also gave an inhibition at 10 µM of 94%.

N#Cc1ccc(N2CCC(F)(C(=O)Nc3ccc(N4CCC(CN5CCN(CC6CCN(c7ccc8c(c7)C(=O)N(C7CCC(=O)NC7=O)C8=O)CC6)CC5)CC4)cn3)CC2)cc1C(F)(F)F (stereo not drawn) [Example 8, 1-(4-cyano-3-(trifluoromethyl)phenyl)-N-(5-(4-((4-((1-(2-(2,6-dioxopiperidin-3-yl)-1,3-dioxoisoindolin-5-yl)piperidin-4-yl)methyl)piperazin-1-yl)methyl)piperidin-1-yl)pyridin-2-yl)-4-fluoropiperidine-4-carboxamide] gave an inhibition at 0.01 µM of 37%, an inhibition at 0.1 µM of 87% and an inhibition at 1 µM of 95%.

N#Cc1ncc(N2CCC(C(=O)Nc3ccc(N4CCC(CN5CCN(CC6CCN(c7ccc8c(c7)C(=O)N(C7CCC(=O)NC7=O)C8=O)CC6)CC5)CC4)cn3)CC2)cc1C(F)(F)F (stereo not drawn) [Example 9, 1-(6-cyano-5-(trifluoromethyl)pyridin-3-yl)-N-(5-(4-((4-((1-(2-(2,6-dioxopiperidin-3-yl)-1,3-dioxoisoindolin-5-yl)piperidin-4-yl)methyl)piperazin-1-yl)methyl)piperidin-1-yl)pyridin-2-yl)piperidine-4-carboxamide] gave an inhibition at 0.01 µM of 62%, an inhibition at 0.1 µM of 95% and an inhibition at 1 µM of 95%.

N#Cc1ncc(N2CCC(F)(C(=O)Nc3ccc(N4CCC(CN5CCN(CC6CCN(c7ccc8c(c7)C(=O)N(C7CCC(=O)NC7=O)C8=O)CC6)CC5)CC4)cn3)CC2)cc1C(F)(F)F (stereo not drawn) [Example 10, 1-(6-cyano-5-(trifluoromethyl)pyridin-3-yl)-N-(5-(4-((4-((1-(2-(2,6-dioxopiperidin-3-yl)-1,3-dioxoisoindolin-5-yl)piperidin-4-yl)methyl)piperazin-1-yl)methyl)piperidin-1-yl)pyridin-2-yl)-4-fluoropiperidine-4-carboxamide] gave an inhibition at 0.01 µM of 9%, an inhibition at 0.1 µM of 52% and an inhibition at 1 µM of 74%.

Molecule N#Cc1ccc(N2CCC(C(=O)Nc3ccc(N4CCC(CN5CCN(CC6CN(c7ccc8c(c7)C(=O)N(C7CCC(=O)NC7=O)C8=O)C6)CC5)CC4)cn3)CC2)cc1C(F)(F)F (stereo not drawn) [Example 11, 1-(4-cyano-3-(trifluoromethyl)phenyl)-N-(5-(4-((4-((1-(2-(2,6-dioxopiperidin-3-yl)-1,3-dioxoisoindolin-5-yl)azetidin-3-yl)methyl)piperazin-1-yl)methyl)piperidin-1-yl)pyridin-2-yl)piperidine-4-carboxamide] has an inhibition at 0.01 µM of 76%, an inhibition at 0.1 µM of 97% and an inhibition at 1 µM of 97%. The inhibition at 10 µM was 93%.

N#Cc1ccc(N2CCC(C(=O)Nc3ccc(N4CCC(CN5CCN(CC6CN(c7ccc8c(c7)C(=O)N(C7CCC(=O)NC7=O)C8=O)C6)CC5)CC4)cn3)CC2)cc1Cl (stereo not drawn) [Example 12, 1-(3-chloro-4-cyanophenyl)-N-(5-(4-((4-((1-(2-(2,6-dioxopiperidin-3-yl)-1,3-dioxoisoindolin-5-yl)azetidin-3-yl)methyl)piperazin-1-yl)methyl)piperidin-1-yl)pyridin-2-yl)piperidine-4-carboxamide] was tested, and the inhibition at 0.01 µM was 52%, the inhibition at 0.1 µM was 95% and the inhibition at 1 µM was 97%. It also gave an inhibition at 10 µM of 94%.

Molecule N#Cc1ccc(N2CCC(C(=O)Nc3ccc(N4CCC(CN5CCN(CC6CCN(c7cccc8c7C(=O)N(C7CCC(=O)NC7=O)C8=O)CC6)CC5)CC4)cn3)CC2)cc1C(F)(F)F (stereo not drawn) [Example 13, 1-(4-cyano-3-(trifluoromethyl)phenyl)-N-(5-(4-((4-((1-(2-(2,6-dioxopiperidin-3-yl)-1,3-dioxoisoindolin-4-yl)piperidin-4-yl)methyl)piperazin-1-yl)methyl)piperidin-1-yl)pyridin-2-yl)piperidine-4-carboxamide] has an inhibition at 0.01 µM of 59%, an inhibition at 0.1 µM of 91% and an inhibition at 1 µM of 94%.
